Laboratory results taken from patent US20100267798A1, “PHARMACEUTICAL FORMULATIONS AND USE THEREOF IN THE PREVENTION OF STROKE, DIABETES AND/OR CONGESTIVE HEART FAILURE” (AVENTS PHARMA DEUTSCHLAND GMBH, priority 1999, published 2010).

System: participants at high risk for cardiovascular events
Test: Large-scale clinical trial of ramipril versus placebo in reducing cardiovascular events
Assay type: in vivo, human
Experimental: A large-scale clinical trial was designed to examine the effect of the ACE inhibitor ramipril versus placebo in reducing cardiovascular events.
The study was conducted in 267 centres in 19 countries over a six year period and included 9,541 participants who are at high risk for cardiovascular events due to a history of previous ischaemic heart disease, stroke, peripheral arterial disease or individuals with diabetes.
The systolic blood pressure at inclusion of the patients was on average 138 mm Hg and thus the patients were normotensive at study start. After one month of therapy with either ramipril or placebo, the systolic blood pressure had decreased by 5.48 mm Hg and 1.59 mm Hg, respectively.
The primary endpoint of the study was myocardial infarction (MI), stroke and cardiovascular (CV) death (mortality).

CCOC(=O)[C@H](CCc1ccccc1)N[C@@H](C)C(=O)N1[C@H](C(=O)O)C[C@@H]2CCC[C@@H]21 [ramipril]
decrease in systolic blood pressure (after one month of therapy, normotensive patients, on average 138 mm Hg at inclusion): 5.48 mm Hg | reduction in the need for revascularisation procedures and diabetic complications (patients taking ramipril versus placebo): between a fourth and a fifth | reduction in the combined endpoint of cardiovascular deaths, heart attacks and strokes (patients taking ramipril, study stopped early): very clear reduction | reduction in the number of patients who developed diabetes (ramipril group versus placebo): 36% | reduction in the number of patients who developed CHF (ramipril group versus placebo, no signs or symptoms of CHF at study start): 21% | reduction in the number of patients who developed a stroke (ramipril group versus placebo, patients normotensive when recruited): 32%
